{
  "source": "ChEMBL document CHEMBL1150746",
  "about": "“Native American food and medicinal plants, 8. Water-soluble constituents of Lomatium dissectum” (1988)",
  "test_system": "Xanthomonas campestris",
  "test": "Antimicrobial activity against Xanthomonas campestris at 0.5 mg/disk",
  "type": "functional",
  "data": [
    {"compound": "O=c1cc(-c2ccc(O)c(O)c2)oc2cc(O[C@@H]3O[C@H](CO)[C@@H](O)[C@H](O)[C@H]3O)cc(O)c12", "note": "[GALUTEOLIN]", "values": [
      {"measurement": "inhibition zone (IZ)", "value": 3, "unit": "mm"}
    ]}
  ]
}
